Assay results: paper PMC8395335, “Serotonergic–Muscarinic Interaction within the Prefrontal Cortex as a Novel Target to Reverse Schizophrenia-Related Cognitive Symptoms” (International Journal of Molecular Sciences, 2021)
Like-named read-outs stand apart in the source and are kept apart here.

Experiments:
MK-801-treated mice = assay: Novel object recognition (NOR) test, MK-801-induced deficits; assay type: in vivo
Procedure: Drugs were administered on two different schedules: (1) acute administration of compounds 45 min (WAY100635—5-HT1A antagonist) or 30 min (VU0357017, VU152100, VU0238429, and F15599) before MK-801 (also administered once 30 min before the test in Y-maze or T1 in NOR test); and (2) prolonged administration (once per day for 7 consecutive days) of the compounds and MK-801 with the last administration 24 h before the test (NOR test) or at the day of the test (Y-maze). […] Schedules of administration are presented graphically in Figure 2. The subeffective doses of the compounds for acute administration in the NOR test were chosen based on our previous research (see: [22, 23]) while dose-dependent studies of the activity of the compounds in reversing disruptions in the Y-maze or after prolonged administration along with MK-801 were performed within this study. Different vehicles were used throughout the study: (1) 0.9% NaCl and (2) 10% Tween 80. Vehicles were administered to all animals (e.g., control mice and MK-801-treated mice) on the same schedule as drugs were administered to the appropriate drug-treated groups of mice. Neither solvent exerted effects on animal behavior.
Male Albino Swiss mice (Charles River, Sulzfeld, Germany) weighing 20–25 g at the beginning of the experiments were used in the studies. The animals were housed in a room with a 12:12 h light-dark cycle at a temperature of 22 ± 1 °C with food and water available ad libitum. The experimental groups consisted of 8–10 animals. All drugs were administered intraperitoneally (i.p.) at a volume of 10 mL/kg. The behavioral experiments were performed by an observer who was blinded to the treatment. The procedures were conducted in accordance with the European Communities Council Directive of 22 September 2010 (2010/63/EU) and Polish legislation acts concerning animal experimentation and were approved by the II Local Ethics Committee by the Maj Institute of Pharmacology, Polish Academy of Sciences in Krakow (15/2020, 240/2020).
In acute experiments, the tested compounds (alone or in combination) were administered 30 min before MK-801 (0.3 mg/kg), which was administered 30 min before the test or training trial (T1) in the NOR test. In chronic experiments, the tested compounds (alone or in combination) and MK-801 were administered for seven days. Behavioral tests were performed on the eighth day.
The NOR test was performed as described previously. Briefly, the habituation, training and test trial were carried out in a dark room in a black, plastic rectangular arena illuminated with a 355 lux bulb. During the habituation trial, the animals were allowed to explore the arena in the absence of objects (10 min/day for 2 days). The next day, the training (T1) and test (T2) trials were performed. Throughout T1, mice were allowed to freely explore two identical objects (5 min), one of which was subsequently replaced by a novel object in T2 (1 h later, 5 min of exploration). Time spent exploring (i.e., sniffing or touching) the familiar (Tfamiliar) or novel object (Tnovel) was measured by a trained observer, and then the recognition index was calculated for each mouse [(Tnovel − Tfamiliar)/(Tfamiliar + Tnovel)] × 100.

[1] = Pharmacokinetic analysis of drug-drug interactions (plasma, FC concentration, FC penetration); assay type: in vivo, mice; details: for Kp at 30 min / concentration at 30 min: Albino Swiss, mouse, intraperitoneal; for Kp at 30 min: frontal cortex/plasma
Procedure: The experiment was performed using the methods described by Bridges et al. and in our previous studies.
The pharmacokinetic analysis was performed in the blood and prefrontal cortex. […] Plasma and FC samples were stored at −80 °C until analysis.
The investigated compounds were administered alone at the top dose (F15599—0.1 mg/kg, VU0357017—5 mg/kg, VU0152100—1 mg/kg, and VU0238429—5 mg/kg) and in combinations of muscarinic ligands at subeffective doses with F15599 at subeffective dose (F15599 + VU0357017 0.05 and 0.15 mg/kg, F15599 + VU0152100 0.05 and 0.05 mg/kg, F15599 + VU0238429 0.05 and 1 mg/kg). The FC and blood were collected on the eighth day, 30 min after administration. All mice were parallelly treated with MK-801 (0.3 mg/kg) for seven consecutive days.
On the day of analysis, frozen whole mouse brain tissues were weighed and homogenized in 1:2 (w/v) volumes of ice-cold acetonitrile containing 0.1% FA and the internal standard mix. Samples were homogenized using a Metal Bead Lysing Matrix, vortexed for 1 min, shaken for 20 min at 4 °C on Thermomixer C, and centrifuged at 14,000× g rpm for 20 min at 4 °C. Finally, 50 µL of supernatant were diluted with 0.1% FA in water (1:1, v/v) and analyzed using HPLC/MS/MS.
The sample extraction of plasma (20 μL) was performed after spiking with the internal standard mix using the protein precipitation method and three volumes of ice-cold acetonitrile containing 0.1% formic acid. The extract was vortexed, incubated on ice for 20 min and centrifuged at 14,000× g rpm for 20 min at 4 °C. The supernatant was diluted with 0.1% FA in water (1:1, v/v) and analyzed by means of HPLC/MS/MS using a QTRAP 4500 (AB Sciex) mass spectrometer in positive ion mode in Multiple Reaction Monitoring (MRM screening) coupled with UHPLC (NEXERA XR, Shimadzu). Chromatographic separation was achieved on a Synergi 4 µm Fusion-RP 80 A 50 × 2 mm (Phenomenex) column at a flow rate of 0.2 mL/min. The gradient program was as follows: 20% B (0.3 min), 20–100% B (1.7 min), 100% B (3 min), 100–20% B (0.1 min), 20% B (2 min), solvent A (95:5:0.1% formic acid in water:methanol) and solvent B (methanol containing 0.1% formic acid). The column temperature was set to 40 °C. Analyst software was used to control the instrument and collect data. The ion transfer tube temperature was 300 °C. The spray voltage, collision energy, declastering potential, and gas parameters were optimized to achieve the maximal response using the test compounds. Selected reaction monitoring was carried out using the transition parameters. Calibration curves were constructed, and a linear response was obtained in the range of 0.25–500 ng/mL (VU357017, VU0152100, and F15599) and 1.25–2500 ng/mL (VU0238429) by spiking known amounts of each compound in blank brain homogenates and plasma. For VU0357017 and F15599 IS VU0152100 was used as internal standard. Sample concentration of internal standard was 100 ng/mL for IS VU0238429 and 50 ng/mL for IS VU0152100.
Brain penetration was calculated as FC/plasma ratio × 100%.

Q: What does the source list for `CCOC(=O)N1CCC(NCCNC(=O)c2ccccc2C)CC1` [VU0357017]?
A: Reversal of MK-801-induced deficits in the NOR test (recognition index) (MK-801-treated mice; 7 days with MK-801, 0.15 mg/kg): ineffective; Reversal of MK-801-induced disruptions in NOR test by combined administration (MK-801-treated mice; 7 days, F15599 0.05 mg/kg with VU0357017 0.15 mg/kg (subeffective doses)): reversed; Effect of top dose on MK-801-induced deficits in the NOR test (MK-801-treated mice; acute, 5 mg/kg i.p., alone): pro-cognitive effect; Effect of combined administration on MK-801-induced memory deficits in the NOR test (MK-801-treated mice; acute, subeffective doses, F15599 with VU0357017): no effect; Kp at 30 min ([1]; acute, combination F15599 0.05 mg/kg + VU0357017 1 mg/kg, read-out: PFC Penetration): 0.31; Kp at 30 min ([1]; acute, top doses alone (VU0357017 5, VU0152100 1, VU0238429 5, F15599 0.1 mg/kg), 30 min after administration, read-out: PFC Penetration (FC/plasma ratio x 100%)): 0.67; Kp at 30 min ([1]; chronic (7 days with MK-801), combination F15599 0.05 mg/kg + VU0357017 0.15 mg/kg, read-out: PFC Penetration): 0.46; Kp at 30 min ([1]; chronic (7 days with MK-801), top doses alone (VU0357017 5, VU0152100 1, VU0238429 5, F15599 0.1 mg/kg), read-out: PFC Penetration (FC/plasma ratio x 100%)): 0.36; concentration at 30 min ([1]; plasma, acute, combination F15599 0.05 mg/kg + VU0357017 1 mg/kg, read-out: Plasma): 7.19 ± 0.24 ng/mL; concentration at 30 min ([1]; plasma, acute, top doses alone (VU0357017 5, VU0152100 1, VU0238429 5, F15599 0.1 mg/kg), 30 min after administration, read-out: Plasma): 107 ± 7.65 ng/mL; concentration at 30 min ([1]; plasma, chronic (7 days with MK-801), combination F15599 0.05 mg/kg + VU0357017 0.15 mg/kg, read-out: Plasma): 5.13 ± 0.38 ng/mL; concentration at 30 min ([1]; plasma, chronic (7 days with MK-801), top doses alone (VU0357017 5, VU0152100 1, VU0238429 5, F15599 0.1 mg/kg), read-out: Plasma): 138 ± 14.9 ng/mL; concentration at 30 min ([1]; prefrontal cortex (FC), acute, combination F15599 0.05 mg/kg + VU0357017 1 mg/kg, read-out: PFC): 2.25 ± 0.56 ng/mL; concentration at 30 min ([1]; prefrontal cortex (FC), acute, top doses alone (VU0357017 5, VU0152100 1, VU0238429 5, F15599 0.1 mg/kg), 30 min after administration, read-out: PFC): 71.7 ± 4.69 ng/mL; concentration at 30 min ([1]; prefrontal cortex (FC), chronic (7 days with MK-801), combination F15599 0.05 mg/kg + VU0357017 0.15 mg/kg, read-out: PFC): 2.34 ± 0.255 ng/mL; concentration at 30 min ([1]; prefrontal cortex (FC), chronic (7 days with MK-801), top doses alone (VU0357017 5, VU0152100 1, VU0238429 5, F15599 0.1 mg/kg), read-out: PFC): 50.3 ± 4.62 ng/mL; PFC Penetration (FC/plasma ratio x 100%) ([1]; acute, top doses alone (VU0357017 5, VU0152100 1, VU0238429 5, F15599 0.1 mg/kg), 30 min after administration): 67%; PFC Penetration (FC/plasma ratio x 100%) ([1]; chronic (7 days with MK-801), top doses alone (VU0357017 5, VU0152100 1, VU0238429 5, F15599 0.1 mg/kg)): 36%; Decrease of FC penetration after acute concomitant administration with F15599 ([1]; subeffective doses, compared to top dose alone): more than 50%; Decrease of FC penetration after prolonged administration compared to acute ([1]; top doses alone, animals treated with MK-801): ca. 50%
